Results published in ChEMBL document CHEMBL1201862, “PubChem BioAssay data set” (2004).
Active and inactive are the calls of the source.

What was measured:
[1] = biological target: T1, Polyadenylate-binding protein 1 (Homo sapiens, UniProt P11940); assay: PABP1 MLLE–PAM2 interaction inhibitors, dose response, miRNA deadenylation inhibitor project, biochemical, fluorescence polarization, Cy5-PAM2 peptide, secondary (AID 602260); format: functional; settings: read-out: IC50_Mean
[2] = biological target: T1, Polyadenylate-binding protein 1; assay: PABP1 MLLE–PAM2 binding inhibitor potency, dose response, biochemical, fluorescence polarization, FITC-PAM2 peptide (AID 602259); format: functional; settings: read-out: IC50_Mean
Nonstructural protein 1 = Nonstructural protein 1 (Influenza A virus, UniProt Q194T2); format: functional, Influenza A virus (A/California/07/2009(H1N1))
[3] = biological target: Ras and Rab interactor 1/Tyrosine-protein kinase ABL1 (Homo sapiens, UniProt P00519+Q13671); format: functional;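 further: biochemical TR-FRET dose-response test measuring inhibition of binding between Rin1 and Abl proteins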
Vero = assay: cells; format: functional; settings: Chlorocebus sabaeus
Paired box protein Pax-8 = Paired box protein Pax-8 (Homo sapiens, UniProt Q06710); assay: inhibitors of PAX8-driven TPO luciferase reporter, dose response, RMG-I cells, cherry-pick (AID 687027); format: functional, cell-based;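 further: luciferase reporter driven by Pax8 target thyroperoxidase promoter measured by SteadyGlo luminescence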
[4] = A549 cell cytotoxicity, dose response, cytotoxicity control, plate reader, cherry-pick, antagonist series (AID 743412); format: functional, cell-based
[5] = LGR2 antagonists, dose response, cell-based, HEK293, CRE-luciferase reporter, cherry pick, set 2 (AID 743343); format: functional;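 further: transfected cells were stimulated with diluted bursicon conditioned medium after compound addition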
[6] = MC4R antagonists, dose response, counter-screen for LGR2 antagonist project, cell-based, plate reader, cherry pick (AID 743444); format: functional;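 further: transfected HEK 293 cells stimulated with alpha-MSH peptide; potency of inhibitors of the alpha-MSH evoked signal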
[7] = HEK293 cell cytotoxicity, dose response, cytotoxicity control, plate reader, cherry-picked samples (AID 743446); format: functional, cell-based
[8] = biological target: Induced myeloid leukemia cell differentiation protein Mcl-1 (Homo sapiens, UniProt Q07820); format: functional
[9] = biological target: T2, Heat shock factor protein 1 (Mus musculus, UniProt P38532); assay: inhibition of MG132-induced HSE-luciferase signal, confirmation, cell-based, NIH3T3, luminescence, dose retest (AID 2382); format: functional;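 further: NIH3T3 fibroblasts with HSF1-driven luciferase reporter stressed by proteasome inhibitor MG132; luminescence from HSF1-driven luciferase expression after 8 hours of MG132 stress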
T2 sequence (P38532 whole entry): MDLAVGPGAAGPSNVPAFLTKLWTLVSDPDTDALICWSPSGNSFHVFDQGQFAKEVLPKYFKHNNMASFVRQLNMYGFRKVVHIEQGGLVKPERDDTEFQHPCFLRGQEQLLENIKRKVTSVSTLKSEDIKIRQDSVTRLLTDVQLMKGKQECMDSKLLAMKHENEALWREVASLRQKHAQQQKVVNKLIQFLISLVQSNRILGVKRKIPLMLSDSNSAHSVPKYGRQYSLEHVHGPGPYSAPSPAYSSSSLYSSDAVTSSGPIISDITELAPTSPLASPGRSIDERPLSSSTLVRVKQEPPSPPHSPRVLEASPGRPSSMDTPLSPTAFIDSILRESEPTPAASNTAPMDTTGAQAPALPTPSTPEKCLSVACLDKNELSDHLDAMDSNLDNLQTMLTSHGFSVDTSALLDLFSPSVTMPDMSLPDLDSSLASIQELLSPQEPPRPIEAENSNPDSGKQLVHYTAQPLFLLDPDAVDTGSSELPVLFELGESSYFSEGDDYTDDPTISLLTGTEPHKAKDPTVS

[10] = Shn3 3'UTR reporter inhibitors, dose response, cell-based, Clone20 osteoblasts, firefly luciferase, cherry-picked (AID 624132); format: functional;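 further: firefly luciferase luminescence from reporter carrying the Shn3 3'UTR in osteoblasts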
[11] = HepG2 cell cytotoxicity, dose response, cytotoxicity control, plate reader, cherry-pick, antagonist series (AID 743416); format: functional, cell-based
cells [12] = format: functional, cell-based
cells [13] = format: functional, cell-based; remark: listed apart in the source
[14] = biological target: Glucose-6-phosphate 1-dehydrogenase (Homo sapiens, UniProt P11413); assay: human G6PD enzyme inhibitors, dose response, selectivity assay for P. falciparum G6PD inhibitor project, biochemical, fluorescence (AID 504792); format: functional
HEK293 [15] = assay: NOD1 signaling inhibitors, primary screen, cell-based, luminescence, uHTS (AID 1578); format: functional; settings: Homo sapiens
HEK293 [16] = assay: cells; format: functional, cell-based; settings: Homo sapiens
HEK293 [17] = assay: cells; format: functional, cell-based; settings: Homo sapiens; remark: listed apart in the source
HEK293 [18] = assay: NOD2 signaling inhibitors in MDP-stimulated cells, cell-based, uHTS, luminescence (AID 2001); format: functional; settings: Homo sapiens
[19] = ZM109 Env clade C HIV-1 fusion inhibitors, dose response, HeLa effector, CEM target cells, luciferase, cherry-pick (AID 652058); format: functional, cell-based
[20] = biological target: Voltage-dependent T-type calcium channel subunit alpha-1H (Homo sapiens, UniProt O95180); format: functional;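 further: channel activity triggered by adding a high calcium stimulation buffer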
Caspase-6 = biological target: T3, Caspase-6 (Homo sapiens, UniProt P55212); assay: human caspase-6 inhibitors, dose response, biochemical, VEID-R110 fluorescence, cherry-pick (AID 720632)
T3 sequence (P55212 whole entry): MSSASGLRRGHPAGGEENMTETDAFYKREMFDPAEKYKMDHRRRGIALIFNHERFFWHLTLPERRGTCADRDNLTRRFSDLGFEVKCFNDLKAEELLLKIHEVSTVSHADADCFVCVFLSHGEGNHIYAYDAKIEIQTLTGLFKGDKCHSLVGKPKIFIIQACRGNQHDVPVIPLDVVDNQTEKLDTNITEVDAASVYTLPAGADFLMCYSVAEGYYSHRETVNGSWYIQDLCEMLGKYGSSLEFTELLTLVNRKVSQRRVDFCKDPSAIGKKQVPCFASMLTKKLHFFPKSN

[21] = microbe, parasite or virus in culture; format: functional; settings: Mycobacterium tuberculosis
[22] = inhibitors of clade B AD8 Env fusion, dose response, cell-based, cherry-pick (AID 652062); format: functional;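 further: luciferase signal from cell-cell fusion driven by HIV-1 clade B AD8 Env; potency is for inhibitors of fusion seen as a drop in luminescence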
[23] = control 3'UTR Renilla luciferase suppression, dose response, counter-screen for Shn3 inhibitor project, cell-based, Clone20-Shn3RL, cherry-picked (AID 624133); format: functional

T1 sequence (P11940 whole entry): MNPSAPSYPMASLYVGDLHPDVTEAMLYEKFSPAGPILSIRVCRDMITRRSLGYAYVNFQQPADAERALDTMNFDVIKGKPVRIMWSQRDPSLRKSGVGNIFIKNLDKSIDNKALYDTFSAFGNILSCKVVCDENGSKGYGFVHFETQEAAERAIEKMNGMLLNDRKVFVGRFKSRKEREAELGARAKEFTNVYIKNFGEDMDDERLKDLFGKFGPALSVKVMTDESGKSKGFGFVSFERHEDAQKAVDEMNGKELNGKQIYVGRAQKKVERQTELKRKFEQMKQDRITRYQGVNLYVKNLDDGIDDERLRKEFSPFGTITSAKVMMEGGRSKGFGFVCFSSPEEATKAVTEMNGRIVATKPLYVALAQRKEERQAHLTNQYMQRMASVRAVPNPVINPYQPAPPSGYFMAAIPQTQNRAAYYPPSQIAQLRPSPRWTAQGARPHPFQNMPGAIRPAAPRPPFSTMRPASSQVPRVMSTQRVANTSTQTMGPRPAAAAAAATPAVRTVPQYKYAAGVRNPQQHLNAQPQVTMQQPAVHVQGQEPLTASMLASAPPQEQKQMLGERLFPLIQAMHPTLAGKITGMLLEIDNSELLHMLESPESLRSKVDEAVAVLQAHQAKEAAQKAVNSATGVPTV
Induced myeloid leukemia cell differentiation protein Mcl-1, sequence (Q07820 whole entry): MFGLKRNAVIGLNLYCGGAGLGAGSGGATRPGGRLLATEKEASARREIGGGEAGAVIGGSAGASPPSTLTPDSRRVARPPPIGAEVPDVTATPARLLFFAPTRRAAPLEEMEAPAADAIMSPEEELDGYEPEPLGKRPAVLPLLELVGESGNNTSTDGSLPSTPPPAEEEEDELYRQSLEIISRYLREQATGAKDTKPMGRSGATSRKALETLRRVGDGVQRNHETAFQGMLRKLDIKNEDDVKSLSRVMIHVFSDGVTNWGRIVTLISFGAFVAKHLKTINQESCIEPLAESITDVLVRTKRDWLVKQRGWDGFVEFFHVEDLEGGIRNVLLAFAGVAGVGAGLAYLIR
Voltage-dependent T-type calcium channel subunit alpha-1H, sequence (O95180 whole entry): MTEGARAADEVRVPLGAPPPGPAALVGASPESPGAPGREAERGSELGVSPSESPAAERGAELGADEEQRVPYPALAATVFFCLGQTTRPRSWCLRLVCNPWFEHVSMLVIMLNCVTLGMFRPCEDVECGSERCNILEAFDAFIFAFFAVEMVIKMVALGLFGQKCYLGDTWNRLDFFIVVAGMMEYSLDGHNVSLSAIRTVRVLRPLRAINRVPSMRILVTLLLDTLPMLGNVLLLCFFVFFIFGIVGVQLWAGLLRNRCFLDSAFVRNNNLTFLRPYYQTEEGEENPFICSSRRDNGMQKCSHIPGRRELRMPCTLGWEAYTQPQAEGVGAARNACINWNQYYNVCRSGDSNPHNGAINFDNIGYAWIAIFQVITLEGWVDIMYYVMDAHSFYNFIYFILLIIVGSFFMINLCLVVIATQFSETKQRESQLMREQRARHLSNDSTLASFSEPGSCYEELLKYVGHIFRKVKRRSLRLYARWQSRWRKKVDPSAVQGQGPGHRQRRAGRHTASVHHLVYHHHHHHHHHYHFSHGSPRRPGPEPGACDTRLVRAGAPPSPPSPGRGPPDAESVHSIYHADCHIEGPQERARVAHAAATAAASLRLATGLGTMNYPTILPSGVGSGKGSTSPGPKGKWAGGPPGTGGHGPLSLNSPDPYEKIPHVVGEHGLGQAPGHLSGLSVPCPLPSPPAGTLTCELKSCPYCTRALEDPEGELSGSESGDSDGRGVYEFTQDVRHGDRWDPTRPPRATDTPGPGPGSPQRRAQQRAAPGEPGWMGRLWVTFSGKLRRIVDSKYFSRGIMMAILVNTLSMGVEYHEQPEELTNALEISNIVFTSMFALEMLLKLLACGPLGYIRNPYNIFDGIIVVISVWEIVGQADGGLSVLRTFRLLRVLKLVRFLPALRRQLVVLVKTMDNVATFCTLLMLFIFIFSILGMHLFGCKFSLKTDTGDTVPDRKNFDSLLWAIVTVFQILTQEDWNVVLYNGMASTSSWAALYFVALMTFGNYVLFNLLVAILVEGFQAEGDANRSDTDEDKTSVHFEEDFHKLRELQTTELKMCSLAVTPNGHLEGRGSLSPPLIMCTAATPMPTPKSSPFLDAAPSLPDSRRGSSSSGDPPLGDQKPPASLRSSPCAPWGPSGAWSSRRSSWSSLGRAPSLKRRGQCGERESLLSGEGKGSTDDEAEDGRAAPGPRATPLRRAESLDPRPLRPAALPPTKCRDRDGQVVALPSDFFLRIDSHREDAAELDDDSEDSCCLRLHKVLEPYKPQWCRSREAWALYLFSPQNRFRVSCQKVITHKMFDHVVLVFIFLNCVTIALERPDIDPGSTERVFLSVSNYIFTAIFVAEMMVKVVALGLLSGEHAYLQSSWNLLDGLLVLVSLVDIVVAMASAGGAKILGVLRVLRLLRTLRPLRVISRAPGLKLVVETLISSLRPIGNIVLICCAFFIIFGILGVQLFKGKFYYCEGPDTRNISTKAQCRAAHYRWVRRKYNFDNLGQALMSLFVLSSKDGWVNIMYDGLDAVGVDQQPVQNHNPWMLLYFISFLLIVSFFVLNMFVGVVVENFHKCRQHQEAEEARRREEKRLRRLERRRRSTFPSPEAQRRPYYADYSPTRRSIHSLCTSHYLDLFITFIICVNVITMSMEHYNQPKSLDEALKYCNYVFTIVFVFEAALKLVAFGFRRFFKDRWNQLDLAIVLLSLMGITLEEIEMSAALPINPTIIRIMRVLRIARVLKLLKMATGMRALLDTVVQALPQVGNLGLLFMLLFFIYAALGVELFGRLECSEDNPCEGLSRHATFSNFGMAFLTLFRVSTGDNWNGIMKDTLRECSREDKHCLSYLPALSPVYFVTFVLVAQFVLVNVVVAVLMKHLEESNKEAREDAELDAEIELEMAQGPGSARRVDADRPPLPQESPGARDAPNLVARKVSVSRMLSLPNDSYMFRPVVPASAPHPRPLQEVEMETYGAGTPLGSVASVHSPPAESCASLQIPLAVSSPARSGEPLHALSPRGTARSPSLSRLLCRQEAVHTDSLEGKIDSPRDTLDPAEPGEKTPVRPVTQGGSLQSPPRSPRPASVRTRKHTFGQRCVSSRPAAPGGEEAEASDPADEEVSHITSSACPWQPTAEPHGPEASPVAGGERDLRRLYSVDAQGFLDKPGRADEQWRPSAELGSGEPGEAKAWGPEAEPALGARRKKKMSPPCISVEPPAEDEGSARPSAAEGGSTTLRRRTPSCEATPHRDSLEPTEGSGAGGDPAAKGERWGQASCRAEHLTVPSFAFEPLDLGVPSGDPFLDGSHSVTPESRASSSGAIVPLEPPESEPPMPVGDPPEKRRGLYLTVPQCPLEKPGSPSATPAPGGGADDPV
Nonstructural protein 1, sequence (Q194T2 whole entry): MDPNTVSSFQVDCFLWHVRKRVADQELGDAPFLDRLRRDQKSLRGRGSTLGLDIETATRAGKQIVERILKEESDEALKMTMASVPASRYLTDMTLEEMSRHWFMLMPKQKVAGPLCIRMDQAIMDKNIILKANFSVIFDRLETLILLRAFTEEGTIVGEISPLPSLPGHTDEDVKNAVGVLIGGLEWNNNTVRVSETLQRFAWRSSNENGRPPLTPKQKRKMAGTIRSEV
Paired box protein Pax-8, sequence (Q06710 whole entry): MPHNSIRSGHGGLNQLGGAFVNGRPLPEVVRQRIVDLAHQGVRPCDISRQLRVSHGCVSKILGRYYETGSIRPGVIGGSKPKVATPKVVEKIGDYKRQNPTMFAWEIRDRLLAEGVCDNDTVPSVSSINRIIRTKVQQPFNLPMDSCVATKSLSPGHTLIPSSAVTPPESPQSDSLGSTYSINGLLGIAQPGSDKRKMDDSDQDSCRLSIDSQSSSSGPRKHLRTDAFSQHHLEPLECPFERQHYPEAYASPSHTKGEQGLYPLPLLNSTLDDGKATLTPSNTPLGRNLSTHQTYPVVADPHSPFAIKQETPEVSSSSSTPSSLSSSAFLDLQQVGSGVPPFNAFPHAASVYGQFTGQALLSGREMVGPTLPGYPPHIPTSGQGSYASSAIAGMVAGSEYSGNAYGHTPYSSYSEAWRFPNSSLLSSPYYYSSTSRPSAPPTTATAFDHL
Glucose-6-phosphate 1-dehydrogenase, sequence (P11413 whole entry): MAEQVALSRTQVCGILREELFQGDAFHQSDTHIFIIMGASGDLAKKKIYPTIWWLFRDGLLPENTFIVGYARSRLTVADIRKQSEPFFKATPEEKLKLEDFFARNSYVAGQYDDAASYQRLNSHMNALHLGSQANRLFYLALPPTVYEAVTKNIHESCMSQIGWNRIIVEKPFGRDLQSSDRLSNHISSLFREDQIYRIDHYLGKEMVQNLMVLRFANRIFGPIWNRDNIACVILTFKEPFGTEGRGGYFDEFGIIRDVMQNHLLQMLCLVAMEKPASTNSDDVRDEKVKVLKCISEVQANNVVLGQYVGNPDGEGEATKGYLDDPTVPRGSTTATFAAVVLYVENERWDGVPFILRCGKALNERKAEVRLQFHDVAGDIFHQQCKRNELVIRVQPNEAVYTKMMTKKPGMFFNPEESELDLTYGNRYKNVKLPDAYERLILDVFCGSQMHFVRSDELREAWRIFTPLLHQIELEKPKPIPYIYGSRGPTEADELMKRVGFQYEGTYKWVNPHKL

Cc1ccc(N2C(S)=NC3c4cc(Cl)ccc4OC2(C)C3C(=O)N(C)C)cc1 (stereo unspecified)
IC50 [1]: > 66 µM (inactive)
IC50 [2]: > 66 µM (inactive)

CCCCN1C(=O)NC2NC(=O)NC21 (stereo unspecified)
IC50 (Nonstructural protein 1): > 100 µM (active)
IC50 [3]: 905 nM (active)

CCc1ccc(OS(=O)(=O)c2cn(C)c(=O)n(C)c2=O)cc1
IC50 [1]: > 66 µM (inactive)
IC50 [2]: > 66 µM (inactive)

Cn1nnnc1Sc1ncnc2scc(-c3ccc4c(c3)OCO4)c12
CC50 (Vero): 24 µM (active)
AC50 (Paired box protein Pax-8): 747 nM (active)
AC50 [4]: 14.4 µM (active)
AC50 [5]: 695 nM (active)
AC50 [6]: 1.34 µM (active)
AC50 [7]: 28.8 µM (active)

COc1cccc2c(S)c(CCC(C)=O)c(C)nc12
IC50 [8]: < 0.4 µM (active)

COc1ccc(-c2nsc3c(N4CCCCC4C)ncnc23)cc1 (stereo unspecified)
EC50 [9]: < 160 nM (active)
AC50 [10]: < 0.26 µM (active)
AC50 [4]: > 52 µM (inactive)
AC50 [11]: > 52 µM (inactive)
AC50 [5]: 135 nM (active)
AC50 [6]: 0.134 µM (active)
AC50 [7]: > 52 µM (inactive)

NC(=O)c1nn(CC(=O)Nc2ccc3c(c2)OCO3)cc1[N+](=O)[O-]
IC50 [8]: 15.3 µM (not active)

Cc1noc(C(=O)Nc2sc3c(c2C#N)CCC3)c1Cl
EC50 (cells [12]): > 350 µM (not active)
EC50 (cells [13]): 57 µM (active)
IC50 [14]: 47.5 µM (inactive)

COc1ccc(OCC(=O)Nc2nnc(-c3ccco3)s2)cc1
IC50 [8]: 2.82 µM (active)

CC(=O)NC(c1ccco1)c1ccc2cccnc2c1O (stereo unspecified)
EC50 (HEK293 [15]): > 20 µM (inactive)
IC50 (HEK293 [16]): > 20 µM (inactive)
IC50 (HEK293 [17]): > 20 µM (inactive)
IC50 (HEK293 [18]): > 20 µM (inactive)
IC50 (Nonstructural protein 1): 12.5 µM (active)

CN(C)c1ccc(CC(=O)c2nc3ccccc3s2)cc1
IC50 [8]: 2.73 µM (active)

COc1ccccc1CN(C)C(=O)CN1CCN(C(=O)c2cccs2)CC1
AC50 [19]: 32.8 µM (active)

Cc1ccc(-n2c(Cc3cccn3C)nnc2SCC(=O)NCc2ccc3c(c2)OCO3)cc1
EC50 [20]: 1.31 µM (active)

COc1ccc(CCC(=O)Nc2ccc(S(=O)(=O)Nc3nccc(C)n3)cc2)cc1
AC50 (Caspase-6): 47.1 µM (active)

CS(=O)(=O)N(CC(=O)N1CCN(c2ccccc2)CC1)c1ccc(Cl)c(C(F)(F)F)c1
EC50 [20]: 5.13 µM (active)

COc1ccc(NC(=O)c2ccc(Cl)c(S(=O)(=O)N3CCc4ccccc4C3)c2)cn1
CC50 [21]: > 40 µM (active)
AC50 [19]: 1.95 µM (active)
AC50 [22]: 19.4 µM (active)

COc1ccc(NS(=O)(=O)c2ccc(NC(=O)C(CCSC)NC(N)=O)cc2)cc1 (stereo unspecified)
AC50 [10]: > 70 µM (inactive)
AC50 [23]: 26.9 µM (active)

Cc1nn(Cc2ccccc2)c(C)c1NC(=O)c1cc(-c2cccs2)on1
EC50 [20]: 2.71 µM (active)
